Data taken from ChEMBL document CHEMBL3351986, “Probing linker design in citric acid-ciprofloxacin conjugates” (2014).
Values after ≈ are worked out from the molar mass of the structure shown. Active and inactive are the calls of the source. The calls are words filed in the database; no cut-off is given here.

Tested on: Burkholderia cepacia
Assay: Antimicrobial activity against Burkholderia cepacia BIG 9 NCTC 10744 after 18 hrs by micro dilution method
Format: functional
Conditions: BIG 9 NCTC 10744, 18 h

Row | SMILES | MIC [µg/mL]
1 | O=C(O)c1cn(C2CC2)c2cc(N3CCNCC3)c(F)cc2c1=O [CIPROFLOXACIN] | 0.5 (≈ 1.51 µM)

Tested on: Escherichia coli
Assay: Antimicrobial activity against Escherichia coli BIG 0046 after 18 hrs by micro dilution method
Format: functional
Conditions: BIG 0046, 18 h

Row | SMILES | MIC [µg/mL]
2 | O=C(O)c1cn(C2CC2)c2cc(N3CCNCC3)c(F)cc2c1=O [CIPROFLOXACIN] | > 36

Tested on: Staphylococcus epidermidis
Assay: Antimicrobial activity against Staphylococcus epidermidis NCTC 11047 after 18 hrs by micro dilution method
Format: functional
Conditions: NCTC 11047, 18 h

Row | SMILES | MIC [µg/mL]
3 | O=C(O)c1cn(C2CC2)c2cc(N3CCNCC3)c(F)cc2c1=O [CIPROFLOXACIN] | 0.125 (≈ 0.377 µM)

Tested on: Staphylococcus aureus
Assay: Antimicrobial activity against Staphylococcus aureus NCTC 13142 after 18 hrs by micro dilution method
Format: functional
Conditions: NCTC 13142, 18 h

Row | SMILES | MIC [µg/mL]
4 | O=C(O)c1cn(C2CC2)c2cc(N3CCNCC3)c(F)cc2c1=O [CIPROFLOXACIN] | 0.5 (≈ 1.51 µM)

Tested on: Stenotrophomonas maltophilia
Assay: Antimicrobial activity against Stenotrophomonas maltophilia N1124 after 18 hrs by micro dilution method
Format: functional
Conditions: N1124, 18 h

Row | SMILES | MIC [µg/mL]
5 | O=C(O)c1cn(C2CC2)c2cc(N3CCNCC3)c(F)cc2c1=O [CIPROFLOXACIN] | 4 (≈ 12.1 µM)

Tested on: Burkholderia cepacia
Assay: Antimicrobial activity against Burkholderia cepacia BIG 121 after 18 hrs by micro dilution method
Format: functional
Conditions: BIG 121, 18 h

Row | SMILES | MIC [µg/mL]
6 | O=C(O)c1cn(C2CC2)c2cc(N3CCNCC3)c(F)cc2c1=O [CIPROFLOXACIN] | 8 (≈ 24.1 µM)

Tested on: Staphylococcus aureus
Assay: Antimicrobial activity against Staphylococcus aureus HG-1 after 18 hrs by micro dilution method
Format: functional
Conditions: HG-1, 18 h

Row | SMILES | MIC [µg/mL]
7 | O=C(O)c1cn(C2CC2)c2cc(N3CCNCC3)c(F)cc2c1=O [CIPROFLOXACIN] | > 36

Tested on: Staphylococcus aureus
Assay: Antimicrobial activity against Staphylococcus aureus BIG 52 after 18 hrs by micro dilution method
Format: functional
Conditions: BIG 52, 18 h

Row | SMILES | MIC [µg/mL]
8 | O=C(O)c1cn(C2CC2)c2cc(N3CCNCC3)c(F)cc2c1=O [CIPROFLOXACIN] | 0.5 (≈ 1.51 µM)

Tested on: Burkholderia cepacia
Assay: Antimicrobial activity against Burkholderia cepacia BIG 119 after 18 hrs by micro dilution method
Format: functional
Conditions: BIG 119, 18 h

Row | SMILES | MIC [µg/mL]
9 | O=C(O)c1cn(C2CC2)c2cc(N3CCNCC3)c(F)cc2c1=O [CIPROFLOXACIN] | 4 (≈ 12.1 µM)

Tested on: Staphylococcus aureus
Assay: Antimicrobial activity against Staphylococcus aureus NCTC 13143 after 18 hrs by micro dilution method
Format: functional
Conditions: NCTC 13143, 18 h

Row | SMILES | MIC [µg/mL]
10 | O=C(O)c1cn(C2CC2)c2cc(N3CCNCC3)c(F)cc2c1=O [CIPROFLOXACIN] | > 36

Tested on: Burkholderia cepacia
Assay: Antimicrobial activity against Burkholderia cepacia BIG 117 after 18 hrs by micro dilution method
Format: functional
Conditions: BIG 117, 18 h

Row | SMILES | MIC [µg/mL]
11 | O=C(O)c1cn(C2CC2)c2cc(N3CCNCC3)c(F)cc2c1=O [CIPROFLOXACIN] | 1 (≈ 3.02 µM)

Tested on: Stenotrophomonas maltophilia
Assay: Antimicrobial activity against Stenotrophomonas maltophilia N1127 after 18 hrs by micro dilution method
Format: functional
Conditions: N1127, 18 h

Row | SMILES | MIC [µg/mL]
12 | O=C(O)c1cn(C2CC2)c2cc(N3CCNCC3)c(F)cc2c1=O [CIPROFLOXACIN] | 2 (≈ 6.04 µM)

Tested on: Stenotrophomonas maltophilia
Assay: Antimicrobial activity against Stenotrophomonas maltophilia N1119 after 18 hrs by micro dilution method
Format: functional
Conditions: N1119, 18 h

Row | SMILES | MIC [µg/mL]
13 | O=C(O)c1cn(C2CC2)c2cc(N3CCNCC3)c(F)cc2c1=O [CIPROFLOXACIN] | 1 (≈ 3.02 µM)

Tested on: Staphylococcus epidermidis
Assay: Antimicrobial activity against Staphylococcus epidermidis NCTC 2749 after 18 hrs by micro dilution method
Format: functional
Conditions: NCTC 2749, 18 h

Row | SMILES | MIC [µg/mL]
14 | O=C(O)c1cn(C2CC2)c2cc(N3CCNCC3)c(F)cc2c1=O [CIPROFLOXACIN] | 0.25 (≈ 0.754 µM)

Tested on: Serratia marcescens
Assay: Antimicrobial activity against Serratia marcescens BIG 11 NCTC 1377 after 18 hrs by micro dilution method
Format: functional
Conditions: BIG 11 NCTC 1377, 18 h

Row | SMILES | MIC [µg/mL]
15 | O=C(O)c1cn(C2CC2)c2cc(N3CCNCC3)c(F)cc2c1=O [CIPROFLOXACIN] | 0.06 (≈ 0.181 µM)

Tested on: not listed separately
Assay: Inhibition of DNA gyrase (unknown origin) assessed as reduction in supercoiled form of DNA at 5 to 20 uM using ethidium bromide staining by gel electrophoresis
Conditions: not given

Row | SMILES | inhibition
16 | O=C(O)c1cn(C2CC2)c2cc(N3CCNCC3)c(F)cc2c1=O [CIPROFLOXACIN] | Active

Tested on: Staphylococcus haemolyticus
Assay: Antimicrobial activity against Staphylococcus haemolyticus NCTC 11042 after 18 hrs by micro dilution method
Format: functional
Conditions: NCTC 11042, 18 h

Row | SMILES | MIC [µg/mL]
17 | O=C(O)c1cn(C2CC2)c2cc(N3CCNCC3)c(F)cc2c1=O [CIPROFLOXACIN] | 0.125 (≈ 0.377 µM)

Tested on: Burkholderia cepacia
Assay: Antimicrobial activity against Burkholderia cepacia BIG 118 after 18 hrs by micro dilution method
Format: functional
Conditions: BIG 118, 18 h

Row | SMILES | MIC [µg/mL]
18 | O=C(O)c1cn(C2CC2)c2cc(N3CCNCC3)c(F)cc2c1=O [CIPROFLOXACIN] | 0.25 (≈ 0.754 µM)

Tested on: Staphylococcus aureus
Assay: Antimicrobial activity against Staphylococcus aureus (Oxford) NCTC 6571 after 18 hrs by micro dilution method
Format: functional
Conditions: (Oxford) NCTC 6571, 18 h

Row | SMILES | MIC [µg/mL]
19 | O=C(O)c1cn(C2CC2)c2cc(N3CCNCC3)c(F)cc2c1=O [CIPROFLOXACIN] | 0.25 (≈ 0.754 µM)

Tested on: Burkholderia cepacia
Assay: Antimicrobial activity against Burkholderia cepacia BIG 120 after 18 hrs by micro dilution method
Format: functional
Conditions: BIG 120, 18 h

Row | SMILES | MIC [µg/mL]
20 | O=C(O)c1cn(C2CC2)c2cc(N3CCNCC3)c(F)cc2c1=O [CIPROFLOXACIN] | 2 (≈ 6.04 µM)
